Active and inactive are the calls of the source. The calls are words filed in the database; no cut-off is given here.
Legend:
A549 = assay: Antitumor activity against human A549 cells xenografted in female nude mouse model assessed as suppression in tumor growth at 10 mg/kg, po qd administered as 5 days on/2 days off regimen for 4 cycles; type: functional, organism-based; conditions: time 28.0 day
Rat1 = assay: Inhibition of mTORC1 in rat Rat1 cells assessed as S6K phosphorylation at T389 level preincubated for 1 hrs in the presence of IGF-1 stimulation by immunoblot assay; type: cell-based; conditions: dose 0.01-2 µmol/L
[1] = molecular target: Calcium/calmodulin-dependent protein kinase type 1D (Homo sapiens) (UniProt Q8IU85); assay: Inhibition of recombinant human full-length His-tagged CAMK1D expressed in insect cells at 2 uM using Ser/Thr 25 as substrate measured after 1 hr by Z'-LYTE assay relative to control; conditions: Insect cell
Calcium/calmodulin-dependent protein kinase type 1D (Homo sapiens), sequence (Q8IU85 whole entry, looked up): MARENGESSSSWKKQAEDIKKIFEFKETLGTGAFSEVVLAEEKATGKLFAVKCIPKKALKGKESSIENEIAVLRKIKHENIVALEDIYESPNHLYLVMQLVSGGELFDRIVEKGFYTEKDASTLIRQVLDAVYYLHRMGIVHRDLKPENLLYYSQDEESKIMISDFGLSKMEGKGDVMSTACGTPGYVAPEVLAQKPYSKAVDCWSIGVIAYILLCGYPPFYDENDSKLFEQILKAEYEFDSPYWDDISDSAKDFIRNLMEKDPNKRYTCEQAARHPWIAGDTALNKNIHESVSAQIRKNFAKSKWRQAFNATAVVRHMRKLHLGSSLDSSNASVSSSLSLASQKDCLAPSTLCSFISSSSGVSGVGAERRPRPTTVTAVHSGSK

MDA-MB-361 [2] = assay: Antitumor activity against human MDA-MB-361 cells xenografted in female nude mouse model assessed as tumor growth delay at 5 mg/kg, po qd administered as 5 days on/2 days off regimen for 4 cycles; type: functional, organism-based; conditions: time 28.0 day
[3] = molecular target: Casein kinase I isoform delta (Homo sapiens) (UniProt P48730); assay: Inhibition of recombinant human full-length GST-tagged CSNK1D expressed in insect cells at 2 uM using Ser/Thr 11 as substrate measured after 1 hr by Z'-LYTE assay relative to control; conditions: Insect cell
Casein kinase I isoform delta (Homo sapiens), sequence (P48730 whole entry, looked up, canonical isoform): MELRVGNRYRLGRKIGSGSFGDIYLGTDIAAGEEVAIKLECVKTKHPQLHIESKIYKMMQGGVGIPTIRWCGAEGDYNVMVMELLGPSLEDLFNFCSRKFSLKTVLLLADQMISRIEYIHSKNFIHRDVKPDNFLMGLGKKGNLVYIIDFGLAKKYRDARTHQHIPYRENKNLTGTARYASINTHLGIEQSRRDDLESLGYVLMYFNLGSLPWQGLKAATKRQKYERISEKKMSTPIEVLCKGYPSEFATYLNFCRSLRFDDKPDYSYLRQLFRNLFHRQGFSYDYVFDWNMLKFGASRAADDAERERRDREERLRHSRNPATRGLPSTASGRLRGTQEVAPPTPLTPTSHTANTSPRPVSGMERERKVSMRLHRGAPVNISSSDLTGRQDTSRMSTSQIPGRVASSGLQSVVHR

MDA-MB-361 [4] = assay: Induction of apoptosis in human MDA-MB-361 cells assessed as induction in cell death at 10 nmol/L incubated for 48 hrs by FACS analysis relative to control; type: functional
[5] = molecular target: Insulin-like growth factor 1 receptor (Homo sapiens) (UniProt P08069); assay: Inhibition of recombinant human His-tagged IGF1R (960-1397 residues) expressed in baculovirus expression system at 2 uM using Tyr 01 as substrate measured after 1 hr by Z'-LYTE assay relative to control
BT-549 = assay: Antiproliferative activity against human BT-549 cells assessed as cell growth inhibition incubated for 24 hrs by MTS assay; type: functional, cell-based; conditions: BT-549, 24 h
U-87 MG = assay: Antitumor activity against human U-87MG cells assessed as reduction in HIF-1alpha level at 0.025 to 2 micromol/L incubated for 6 hrs by immunoblot analysis; type: functional, cell-based; conditions: U-87MG ATCC, dose 0.025-2 µmol/L
[6] = molecular target: Ephrin type-B receptor 3 (Homo sapiens) (UniProt P54753); assay: Inhibition of recombinant human GST-tagged EPHB3 (623-907 residues) expressed in insect cells at 2 uM using Tyr 02 as substrate measured after 1 hr by Z'-LYTE assay relative to control; conditions: Insect cell
[7] = molecular target: Dual specificity mitogen-activated protein kinase kinase 1 (Homo sapiens) (UniProt Q02750); assay: Inhibition of recombinant human full length His-tagged MAP2K1 expressed in baculovirus expression system at 2 uM using Ser/Thr 03 as substrate measured after 1 hr by Z'-LYTE assay relative to control
Dual specificity mitogen-activated protein kinase kinase 1 (Homo sapiens), sequence (Q02750 whole entry, the tested form may be a part): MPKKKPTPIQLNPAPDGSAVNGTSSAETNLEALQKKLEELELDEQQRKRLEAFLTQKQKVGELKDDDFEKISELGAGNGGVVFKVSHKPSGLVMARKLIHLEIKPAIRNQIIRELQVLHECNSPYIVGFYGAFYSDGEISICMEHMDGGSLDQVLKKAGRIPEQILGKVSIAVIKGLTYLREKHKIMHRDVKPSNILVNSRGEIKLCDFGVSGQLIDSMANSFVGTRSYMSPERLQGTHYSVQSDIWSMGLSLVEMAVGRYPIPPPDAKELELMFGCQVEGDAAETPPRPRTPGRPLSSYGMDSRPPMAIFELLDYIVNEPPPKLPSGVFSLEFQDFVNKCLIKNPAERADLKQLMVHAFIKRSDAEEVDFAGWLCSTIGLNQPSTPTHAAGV

[8] = molecular target: Insulin receptor (Homo sapiens) (UniProt P06213); assay: Inhibition of recombinant human GST-tagged INSR (1011-1382 residues) expressed in insect cells at 2 uM using Tyr 01 as substrate measured after 1 hr by Z'-LYTE assay relative to control; conditions: Insect cell
[9] = molecular target: Mitogen-activated protein kinase 11 (Homo sapiens) (UniProt Q15759); assay: Inhibition of recombinant human full length His-tagged MAPK11 expressed in insect cells at 2 uM using Ser/Thr 15 as substrate measured after 1 hr by Z'-LYTE assay relative to control; conditions: Insect cell
Mitogen-activated protein kinase 11 (Homo sapiens), sequence (Q15759 whole entry): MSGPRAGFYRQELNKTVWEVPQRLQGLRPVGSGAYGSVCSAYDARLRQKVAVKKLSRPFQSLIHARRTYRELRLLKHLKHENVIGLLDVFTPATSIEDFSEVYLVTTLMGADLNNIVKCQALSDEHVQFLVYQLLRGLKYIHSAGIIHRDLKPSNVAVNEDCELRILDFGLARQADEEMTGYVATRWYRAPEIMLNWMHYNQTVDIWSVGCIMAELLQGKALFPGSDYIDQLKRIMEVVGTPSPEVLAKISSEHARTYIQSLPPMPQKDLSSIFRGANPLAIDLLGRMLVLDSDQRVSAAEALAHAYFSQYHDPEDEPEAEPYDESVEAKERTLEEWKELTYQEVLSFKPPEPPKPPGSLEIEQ

[10] = molecular target: Serine/threonine-protein kinase 25 (Homo sapiens) (UniProt O00506); assay: Inhibition of recombinant human full length GST-tagged STK25 expressed in insect cells at 2 uM using Ser/Thr 07 as substrate measured after 1 hr by Z'-LYTE assay relative to control; conditions: Insect cell
Serine/threonine-protein kinase 25 (Homo sapiens), sequence (O00506 whole entry, looked up): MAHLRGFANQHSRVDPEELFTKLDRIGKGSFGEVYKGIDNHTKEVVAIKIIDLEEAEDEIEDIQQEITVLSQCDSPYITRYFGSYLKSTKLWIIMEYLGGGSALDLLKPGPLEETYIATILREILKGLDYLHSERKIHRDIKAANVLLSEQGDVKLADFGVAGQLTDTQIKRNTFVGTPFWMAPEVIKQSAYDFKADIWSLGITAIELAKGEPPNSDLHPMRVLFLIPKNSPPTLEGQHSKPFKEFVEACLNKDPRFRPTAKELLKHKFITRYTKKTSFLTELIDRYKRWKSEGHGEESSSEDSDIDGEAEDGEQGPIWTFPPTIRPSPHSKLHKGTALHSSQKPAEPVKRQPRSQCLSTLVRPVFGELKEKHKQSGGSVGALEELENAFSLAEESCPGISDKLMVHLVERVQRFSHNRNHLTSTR

[11] = molecular target: Cyclin-dependent kinase 5/CDK5 activator 1 (Homo sapiens) (UniProt Q00535+Q15078); assay: Inhibition of recombinant human full-length GST/His-tagged CDK5/p25 expressed in insect cells at 2 uM using Ser/Thr 12 as substrate measured after 1 hr by Z'-LYTE assay relative to control; conditions: Insect cell
Cyclin-dependent kinase 5/CDK5 activator 1 (Homo sapiens), sequence (Q00535 whole entry): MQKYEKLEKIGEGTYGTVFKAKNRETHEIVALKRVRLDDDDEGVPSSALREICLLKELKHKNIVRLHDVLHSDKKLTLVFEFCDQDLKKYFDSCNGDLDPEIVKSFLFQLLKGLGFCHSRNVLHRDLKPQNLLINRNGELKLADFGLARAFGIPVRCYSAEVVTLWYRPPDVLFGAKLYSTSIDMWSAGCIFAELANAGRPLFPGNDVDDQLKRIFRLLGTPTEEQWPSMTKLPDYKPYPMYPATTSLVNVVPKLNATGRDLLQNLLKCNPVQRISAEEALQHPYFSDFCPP
Cyclin-dependent kinase 5/CDK5 activator 1 (Homo sapiens), sequence (Q15078 99-307 partner limits assumed): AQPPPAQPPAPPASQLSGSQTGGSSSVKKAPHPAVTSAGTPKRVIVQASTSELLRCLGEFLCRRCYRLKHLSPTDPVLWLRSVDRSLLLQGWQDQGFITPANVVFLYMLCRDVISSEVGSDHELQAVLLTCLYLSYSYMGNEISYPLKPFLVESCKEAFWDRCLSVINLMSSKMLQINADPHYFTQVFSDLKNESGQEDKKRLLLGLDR

LNCaP = assay: Induction of apoptosis in human LNCaP cells assessed as increase in PARP cleavage at 0.3 to 3 micromol/L incubated for 48 hrs by Western blot analysis; type: functional, cell-based; conditions: dose 0.3-3 µmol/L
MDA-MB-361 [12] = assay: Antitumor activity against human MDA-MB-361 cells xenografted in female nude mouse model assessed as suppression in P-AKT at S473 level at 50 mg/kg, po qd administered as 5 days on/2 days off regimen for 4 cycles by immunoblot analysis; type: functional, organism-based; conditions: time 28.0 day
[13] = molecular target: Mitogen-activated protein kinase kinase kinase 8 (Homo sapiens) (UniProt P41279); assay: Inhibition of recombinant human GST-tagged MAP3K8 (30-397 residues) expressed in insect cells at 2 uM using Ser/Thr 03 as substrate measured after 1 hr by Z'-LYTE assay relative to control; conditions: Insect cell
Mitogen-activated protein kinase kinase kinase 8 (Homo sapiens), sequence (P41279 whole entry, the tested form may be a part): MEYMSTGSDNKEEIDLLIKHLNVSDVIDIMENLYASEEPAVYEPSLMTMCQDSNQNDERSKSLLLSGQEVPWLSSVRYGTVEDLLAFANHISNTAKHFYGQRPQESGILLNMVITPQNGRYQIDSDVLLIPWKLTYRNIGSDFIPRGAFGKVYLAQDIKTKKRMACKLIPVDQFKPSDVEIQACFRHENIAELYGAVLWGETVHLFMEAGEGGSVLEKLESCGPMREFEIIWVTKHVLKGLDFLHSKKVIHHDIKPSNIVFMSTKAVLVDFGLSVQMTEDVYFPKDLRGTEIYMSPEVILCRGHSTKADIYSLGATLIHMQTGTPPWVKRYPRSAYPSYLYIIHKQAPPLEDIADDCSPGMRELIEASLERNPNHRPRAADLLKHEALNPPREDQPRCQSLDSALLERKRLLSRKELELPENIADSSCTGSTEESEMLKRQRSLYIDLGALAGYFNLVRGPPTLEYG

HCT-116 = assay: Antitumor activity against human HCT-116 cells xenografted in female nude mouse model assessed as reduction in P-AKT at T308 level at 50 mg/kg, iv administered once a week and measured at least 8 hrs by immunoblot analysis; type: functional, organism-based
[14] = molecular target: Serine/threonine-protein kinase 3 (Homo sapiens) (UniProt Q13188); assay: Inhibition of recombinant human full length GST-tagged STK3 expressed in insect cells at 2 uM using Ser/Thr 07 as substrate measured after 1 hr by Z'-LYTE assay relative to control; conditions: Insect cell
[15] = molecular target: Cyclin-dependent kinase 1/cyclin B1 (Homo sapiens) (UniProt P06493+P14635); assay: Inhibition of recombinant human full-length His-tagged CDK1/cyclin B expressed in insect cells at 2 uM using Ser/Thr 18 as substrate measured after 1 hr by Z'-LYTE assay relative to control; conditions: Insect cell
Cyclin-dependent kinase 1/cyclin B1 (Homo sapiens), sequence (P06493 whole entry, looked up, the tested form may be a part): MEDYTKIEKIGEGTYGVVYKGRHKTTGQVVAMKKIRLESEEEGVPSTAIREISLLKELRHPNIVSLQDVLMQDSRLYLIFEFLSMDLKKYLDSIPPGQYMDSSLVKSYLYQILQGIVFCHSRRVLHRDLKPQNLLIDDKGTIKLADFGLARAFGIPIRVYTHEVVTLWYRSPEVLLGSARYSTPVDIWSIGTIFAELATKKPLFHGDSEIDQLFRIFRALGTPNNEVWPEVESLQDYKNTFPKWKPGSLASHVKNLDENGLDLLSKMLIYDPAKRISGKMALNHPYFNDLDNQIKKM
Cyclin-dependent kinase 1/cyclin B1 (Homo sapiens), sequence (P14635 whole entry, looked up, the tested form may be a part): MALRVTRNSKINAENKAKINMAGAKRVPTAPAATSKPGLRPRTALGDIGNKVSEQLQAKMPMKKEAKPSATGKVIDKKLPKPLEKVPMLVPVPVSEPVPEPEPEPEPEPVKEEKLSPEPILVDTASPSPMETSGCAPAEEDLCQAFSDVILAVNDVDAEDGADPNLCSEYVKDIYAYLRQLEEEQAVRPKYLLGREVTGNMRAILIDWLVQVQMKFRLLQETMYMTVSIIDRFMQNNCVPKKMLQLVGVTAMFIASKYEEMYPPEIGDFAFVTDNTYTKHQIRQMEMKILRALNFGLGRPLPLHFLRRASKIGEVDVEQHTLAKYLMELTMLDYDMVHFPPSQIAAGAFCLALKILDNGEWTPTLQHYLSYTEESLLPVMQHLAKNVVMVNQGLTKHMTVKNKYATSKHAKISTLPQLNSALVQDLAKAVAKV

[16] = molecular target: Muscle, skeletal receptor tyrosine-protein kinase (Homo sapiens) (UniProt O15146); assay: Inhibition of recombinant human GST-tagged MUSK (519-869 residues) expressed in insect cells at 2 uM using Tyr 04 as substrate measured after 1 hr by Z'-LYTE assay relative to control; conditions: Insect cell
Muscle, skeletal receptor tyrosine-protein kinase (Homo sapiens), sequence (O15146 whole entry, the tested form may be a part): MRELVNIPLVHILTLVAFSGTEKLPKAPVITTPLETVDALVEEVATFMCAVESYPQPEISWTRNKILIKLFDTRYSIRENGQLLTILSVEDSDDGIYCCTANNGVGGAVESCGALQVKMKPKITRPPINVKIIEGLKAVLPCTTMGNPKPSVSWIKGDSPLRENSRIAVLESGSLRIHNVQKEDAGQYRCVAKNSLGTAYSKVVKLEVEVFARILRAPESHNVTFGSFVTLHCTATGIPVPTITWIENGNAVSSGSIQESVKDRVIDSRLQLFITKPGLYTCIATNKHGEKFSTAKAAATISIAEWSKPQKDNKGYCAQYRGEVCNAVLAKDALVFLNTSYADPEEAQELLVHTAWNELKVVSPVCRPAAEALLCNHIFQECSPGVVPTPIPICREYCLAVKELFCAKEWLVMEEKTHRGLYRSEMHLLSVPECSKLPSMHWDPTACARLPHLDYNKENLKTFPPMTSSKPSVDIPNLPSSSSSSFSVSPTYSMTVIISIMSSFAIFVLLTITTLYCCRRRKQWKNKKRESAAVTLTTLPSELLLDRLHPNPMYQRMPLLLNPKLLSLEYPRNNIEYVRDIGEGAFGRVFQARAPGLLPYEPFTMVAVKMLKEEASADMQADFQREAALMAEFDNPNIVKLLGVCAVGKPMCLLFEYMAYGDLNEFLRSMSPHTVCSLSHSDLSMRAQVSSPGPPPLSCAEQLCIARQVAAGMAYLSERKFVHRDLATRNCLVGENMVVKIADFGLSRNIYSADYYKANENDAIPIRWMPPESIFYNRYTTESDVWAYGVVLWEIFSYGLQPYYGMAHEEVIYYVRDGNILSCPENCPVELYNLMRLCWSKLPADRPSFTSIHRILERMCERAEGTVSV

MDA-MB-361 [17] = assay: Induction of apoptosis in HER2 hyperactive human MDA-MB-361 cells assessed as massive cell death at 0.001 to 100 micromol/L incubated for 48 hrs by FACS analysis; type: functional, cell-based; conditions: dose 0.001-100 µmol/L
[18] = molecular target: Eukaryotic elongation factor 2 kinase (Homo sapiens) (UniProt O00418); assay: Inhibition of recombinant human full-length GST-tagged EEF2K expressed in E. coli at 2 uM using Ser/Thr 24 as substrate measured after 1 hr by Z'-LYTE assay relative to control
[19] = molecular target: Serine/threonine-protein kinase Nek7 (Homo sapiens) (UniProt Q8TDX7); assay: Inhibition of recombinant human His-tagged NEK7 (8-313 residues) expressed in insect cells at 2 uM using Ser/Thr 22 as substrate measured after 1 hr by Z'-LYTE assay relative to control; conditions: Insect cell
Serine/threonine-protein kinase Nek7 (Homo sapiens), sequence (Q8TDX7 whole entry, looked up, the tested form may be a part): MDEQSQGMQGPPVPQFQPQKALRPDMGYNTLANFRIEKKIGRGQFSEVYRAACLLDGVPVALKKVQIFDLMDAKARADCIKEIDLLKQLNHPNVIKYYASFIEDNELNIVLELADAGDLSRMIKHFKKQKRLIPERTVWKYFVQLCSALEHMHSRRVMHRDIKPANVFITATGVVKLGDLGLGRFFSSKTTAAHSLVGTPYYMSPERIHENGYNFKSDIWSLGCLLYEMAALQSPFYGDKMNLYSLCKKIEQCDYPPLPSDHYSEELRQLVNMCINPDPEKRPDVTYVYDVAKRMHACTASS

Compound: CNC(=O)Nc1ccc(-c2nc(N3CC4CCC(C3)O4)c3cnn(C4CCC5(CC4)OCCO5)c3n2)cc1
- Activity (A549): Active
- inhibition (Rat1): Active
- inhibition [1]: 0%
- Activity (MDA-MB-361 [2]): Active
- inhibition [3]: 2%
- Activity (MDA-MB-361 [4]): 6.2%
- inhibition [5]: 1%
- IC50 (BT-549): 37 nM
- Activity (U-87 MG): Active
- inhibition [6]: 3%
- inhibition [7]: 3%
- inhibition [8]: 4%
- inhibition [9]: 2%
- inhibition [10]: 2%
- inhibition [11]: 1%
- Activity (LNCaP): Active
- Activity (MDA-MB-361 [12]): Active
- inhibition [13]: 1%
- Activity (HCT-116): inactive
- inhibition [14]: 0%
- inhibition [15]: 6%
- inhibition [16]: 15%
- Activity (MDA-MB-361 [17]): Active
- inhibition [18]: 1%
- inhibition [19]: -3%

Reference: ChEMBL document CHEMBL5696439 (Cancer Res, 2010)
